According to patent US7541379B2, “Di(amido-substituted)heteroarene compounds as osteoblastogenesis agents” (The University of Hong Kong, priority 2005, dated 2009):
“Also recorded” adds a separate entry of the source.

How the values were obtained:
osterix mRNA = assay: Osterix mRNA expression by real-time quantitative RT-PCR in MC3T3-E1 (clone 4) cells; type: cell-based; conditions: 1 μg/mL (high concentrations), 4 days, osteogenic medium
Procedure: (§1) Cell culture. MC3T3-E1 (clone 4) cells ([…], Manassas, Va., U.S.A.) were maintained in complete growth medium, i.e., alpha-MEM supplemented with 100 U/mL penicillin, 100 μg/mL streptomycin, and 10% heat-inactivated fetal bovine serum (JRH Biosciences, Lenexa, Kans., U.S.A. Ascorbic acid (AsA) and β-glycerophosphate (β-GP) were purchased from Sigma-Aldrich Co. (St. Louis, […]., U.S.A.). For the screening of osteoblastogenesis-inducing compounds, cells were plated in 24-well plates in complete growth medium at 5×10^4 cells/cm^2 and after overnight incubation, potential osteoblastogenesis modulating agents were added at 3 different concentrations, each with 10 fold difference. […]
(§2) Real-time quantitative reverse transcription (RT) PCR. […] ALP and osterix mRNA expression was determined by RT followed by real-time TaqMan PCR analysis. […] All PCR reactions were performed in triplicate and data obtained were analyzed using the comparative CT method (Applied Biosystems) with ALP/osterix signals normalized to 18S signal for each sample.
MC3T3-E1 (clone 4) cells were cultured for 4 days, and total RNA was extracted. […] Expression level of osterix expression in MC3T3-E1 (clone 4) cells was determined using Real-Time TaqMan PCR. […]

ALP mRNA = ALP mRNA expression by real-time quantitative RT-PCR in MC3T3-E1 (clone 4) cells; type: cell-based; conditions: 4 days, osteogenic medium
Procedure: as §1, §2
MC3T3-E1 (clone 4) cells were cultured for 4 days, and total RNA was extracted. […] Expression level of osterix expression in MC3T3-E1 (clone 4) cells was determined using Real-Time TaqMan polymerase chain reaction (PCR). […]

CCD-19L cells = assay: Cytotoxicity by MTT assay on CCD-19L cells (vs vehicle control); type: cell-based, human; conditions: 72 h
Text: As used herein, the term “CCD-19L cells” described herein refers to normal human lung fibroblast cell line.
(§3) Cytotoxicity assay. Vero cells, an African green monkey cell line were purchased from American Type Culture Collection (ATCC) and Cell Proliferation Kit I MTT (3-[4,5-dimethylth-iazol-2-yl]-2,5-diphenyltetrazolium bromide) assay was purchased from Roche. Normal human lung fibroblast cell line (CCD-19Lu) was obtained commercially from ATCC. CCD-19Lu cells were maintained in a minimum essential medium with Earle's balanced salts (MEM). The media were supplemented with L-glutamine (2 mM), fetal bovine serum (10%), penicillin (100 U/mL) and streptomycin (100 μg/mL). Cultures were incubated at 37° C. in a 5% CO2/95% air humidified atmosphere. Cell culture flasks and 96-well microtitre plates were purchased from Nalge Nunc Int. Culture medium, other medium constituents and phosphate buffered saline (PBS) were from Gibco BRL.
Assays on cytotoxic effects were conducted in 96-well flat-bottomed microtitre plates. […] The formation of formazan was measured with a microtitre plate reader at 550 nm and the percentages of cell survival were determined. The cytotoxicity was evaluated based on the percentage cell survival in a dose dependent manner relative to the negative control (FIG. 8).

MC3T3-E1 (clone 4) cells [1] = assay: Bone nodule formation and mineralization (Alizarin red stain); type: cell-based; conditions: 0.01 to 1 μg/mL, 26 days, osteogenic conditions
Procedure: Cells were washed twice with ice-cold PBS and then fixed in ice-cold fixative (10% formalin in PBS) for 15 min. After washed with deionized water, fixed cells were stained with 1% alizarin S solution, pH 4.2 for 15 min and then were washed thoroughly with deionized water. Mineralized matrix was then detected.

ALP = ALP enzyme activity assay (PNPP hydrolysis) in MC3T3-E1 (clone 4) cells; type: cell-based
Procedure: Cell culture. […]
(§4) ALP assay. ALP activity was measured as p-nitrophenol produced from the hydrolysis of p-nitrophenyl phosphate (PNPP). […] The reaction was stopped by the addition of NaOH (final concentration, 0.5 M) and the absorbance was measured at 410 nm. Enzyme activity was normalized to the protein content determined using Protein Assay Kit (Bio-Rad). […]
as §4, with “MC3T3-E1 (clone 4) cells were cultured for 4, 10, and 14 days with the presence of VCM supplemented with different concentrations (range from 0.01 to 1 μg/mL) of di(amido-substituted)heteroarene compounds. […]” for “ALP assay.”, “absorbance” for “absorbance was”

[2] = Cytotoxicity by standard MTT assay on Vero cells; type: cell-based, African green monkey; conditions: African green monkey, MTT assay, read-out: TC50 (the source's name)
Procedure: as §3
(§5) The cytotoxicity of selected compounds was determined by MTT according to manufacturer's (Roche) instructions. The experiment (cell viability using MTT as an indicator) was carried out in triplicates. The TC50 (on Vero cells, an African green monkey cell line) is ca. 50 μM, it is concluded that these compounds may be useful for osteoblastogenesis development.

[3] = system: African green monkey Vero cells; assay: Cytotoxicity by standard MTT assay on Vero cells; type: cell-based
Procedure: as §3, §5

MC3T3-E1 (clone 4) cells [4] = assay: MTT-based cell proliferation assay; conditions: 0.01 to 1 μg/mL, 2 days, osteogenic medium
Procedure: (§6) Cell proliferation assay. Cell proliferation studies were performed as previously described using MTT-based (GE Healthcare, Piscataway, N.J., USA) cell proliferation assays (Cheung et a/, FEBS Lett (2006), 580, 121). After treatment with potential osteoblastogenesis modulating agents for 2 days, MTT was added at a final concentration of 0.5 mg/ml for 3 h, cells were solubilized with isopropanol containing 0.1% sodium dodecyl sulfate and 0.04 N hydrochloric acid, and the absorbance measured at 570 nm. All experiments were repeated three times.
as §6, with “Cell” for “Cell proliferation assay. Cell”, “MTT” for “MTT-based”, “USA)” for “USA) cell proliferation”, “al,” for “a/,”, “the candidate compounds (concentrations 0.01 to 1 μg/mL)” for “potential osteoblastogenesis modulating agents”

Structure (SMILES): Cc1ccc(S(=O)(=O)Nc2cn(C)cc2NS(=O)(=O)c2ccc(C)cc2)cc1 [compound 1]
- effect on osterix mRNA expression (osterix mRNA): effectively up-regulated mRNA expression of osterix; also recorded: enhanced osterix mRNA expression
- ALP mRNA expression up-regulated (ALP mRNA; 0.1 μg/mL): 16%
- effect on ALP mRNA expression (ALP mRNA; 0.1 and 1 μg/mL): enhanced ALP mRNA expression
- cytotoxicity on CCD-19L cells (CCD-19L cells): low cytotoxicity
- effect on mineralization of bone nodules (MC3T3-E1 (clone 4) cells [1]): potentiated mineralization of bone nodules
- effect on ALP enzyme activity (ALP; 0.01 to 1 μg/mL, osteogenic medium, 4, 10 and 14 days): significantly enhanced ALP enzyme activity in a dose-dependent manner
- ALP activity up-regulated compared to the control (ALP; 14 days of treatment, 0.1 μg/mL, osteogenic medium): 2 fold
- CC50 [2]: 57 µM
- CC50 ([3]; MTT assay, read-out: TC50 (the source's name)): ≤ 57 µM
- cytotoxicity on Vero cells ([3]; standard MTT assay): low cytotoxicity
- effect on cell proliferation (MTT) (MC3T3-E1 (clone 4) cells [4]): did not alter
